Results reported in patent US4206215A, “Antimicrobial bis-[4-(substituted-amino)-1-pyridinium]alkanes” (Sterling Drug Inc., priority 1977, dated 1980).
Where two headings read alike, the source gives them in different places.

Tests used:
E. coli AB1932-1 = assay: In vitro antibacterial activity, MIC (modified Autotiter method); assay type: cell-based, Escherichia coli; conditions: 18-20 hours at 37° C.; for MIC: Escherichia coli, AB19321, 20 h, read-out: MIC E. coli AB1932-1
How it was run: (§1)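 Twofold serial dilutions, final concentrations 500 to 0.06 mcg./ml., made automatically (modified Autotiter) from a 1,000 mcg./ml. stock and inoculated in double-strength semisynthetic glucose medium. Value recorded as minimum inhibitory concentration.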

E. coli 100/B22 = assay: as above; assay type: cell-based, Escherichia coli; conditions: for MIC: Escherichia coli, 100/B22, 20 h, read-out: MIC E. coli 100/B22, 18-20 hours at 37° C.; for MIC E. coli 100/B22: 18-20 hours at 37° C.
How it was run: as §1

E. coli Vogel = assay: as above; assay type: cell-based, Escherichia coli; conditions: 18-20 hours at 37° C.; for MIC: Escherichia coli, 20 h, read-out: MIC E. coli Vogel
How it was run: as §1

T. menta. 9129 = assay: In vitro antifungal activity, MIC (modified Autotiter method); assay type: cell-based, Trichophyton mentagrophytes; conditions: 18-20 hours at 37° C.; for MIC: Trichophyton mentagrophytes, 20 h, read-out: MIC T. menta. 9129
How it was run: as §1

C. albicans 10231 = assay: as above; assay type: cell-based, Candida albicans; conditions: 18-20 hours at 37° C.; for MIC: Candida albicans, 10231, 20 h, read-out: MIC C. albicans 10231
How it was run: as §1

C. albicans Wisc. = assay: as above; assay type: cell-based, Candida albicans; conditions: 18-20 hours at 37° C.; for MIC: Candida albicans, 20 h, read-out: MIC C. albicans Wisc.
How it was run: as §1

K. pneum. 39645 = assay: In vitro antibacterial activity, MIC (modified Autotiter method); assay type: cell-based, Klebsiella pneumoniae; conditions: 18-20 hours at 37° C.; for MIC: Klebsiella pneumoniae, 20 h, read-out: MIC K. pneum. 39645
How it was run: as §1

P. mirab. MGH-1 = assay: as above; assay type: cell-based, Proteus mirabilis; conditions: 18-20 hours at 37° C.; for MIC: Proteus mirabilis, 20 h, read-out: MIC P. mirab. MGH-1
How it was run: as §1

[1] = test system: young adult male Swiss-Webster strain albino mice; assay: Acute oral toxicity (ALD50); assay type: in vivo
Procedure: (§2) The acute oral toxicity (ALD50) of several representative examples was determined as follows: Groups of 3 young adult male Swiss-Webster strain albino mice were fasted approximately 4 hours before medication and then medicated once orally by stomach tube.

[2] = Acute oral toxicity (ALD50); assay type: in vivo; conditions: mouse, in vivo, po, mice, read-out: 7-Day ALD50
Procedure: as §2

S. pyogen. C203 = assay: In vitro antibacterial activity, MIC (modified Autotiter method); assay type: cell-based, Streptococcus pyogenes; conditions: 18-20 hours at 37° C.; for MIC: Streptococcus pyogenes, 20 h, read-out: MIC S. pyogen. C203
How it was run: as §1

[3] = test system: Streptococcus mutans OMZ-61; assay: Dental plaque-preventive effectiveness in the presence of sterile human saliva (50%); assay type: cell-based; conditions: 50% sterile human saliva
Procedure: The dental plaque preventive activity of certain of the compounds of the present invention was determined by measuring the ability of these compounds to inhibit the production of dental plaque by Streptococcus mutans OMZ-61 as follows:
A culture medium for the plaque-producing Streptococcus mutans OMZ-61 containing 1.5 g. of BBL beef extract, 5 g. of sodium chloride, 10 g. of dehydrated trypticase, 5 g. of sucrose and sufficient distilled water to give a total volume of 1000 ml. is adjusted to pH 7.0 and sterilized by membrane filtration. The medium is dispensed aseptically in 10-ml. aliquots into 150×16 mm. test tubes and stored at refrigeration temperature until used.
Two concentrations of the compound to be tested are prepared by dissolving 100 mg. of the compound in 1 ml. of distilled water with the aid of sufficient 0.1 N sodium hydroxide, 10% dimethylsulfoxide or 10% N,N-dimethylformamide and diluting the resulting solution to 10 ml. with distilled water. This 1.0% solution and a 1:10 dilution in distilled water (0.1%) are sterilized by membrane filtration before use.
A sterile piece of plaque-free natural tooth enamel or synthetic hydroxylapatite is suspended in each concentration of compound for two 1-minute periods, each followed by a 1-minute air drying period. Each piece is then suspended and agitated for 5 minutes in individual test tubes containing sterile distilled water (rinse). They are then suspended in 10 ml. of liquid beef extract medium to which has been added 0.3 ml. of a 24-hr. anaerobic culture of Streptococcus mutans. The tubes containing the "treated" hydroxylapatite and the Streptococcus mutans are then incubated anaerobically at 37° C. for 24 hours. The same process of two 1-minute soaks in the solution of compound, each followed by 1 minute of air drying and the final 5-minute rinse is repeated before once again suspending the hydroxylapatite in a fresh tube containing 10 ml. of beef extract medium and 0.3 ml. of inoculum. At the end of the second 24-hour period, each piece of hydroxylapatite is rinsed for 1 minute in 3 successive tubes of distilled water. These are then suspended for 1 minute in a solution of F, D & C Red No. 3 dye. This staining procedure is used in order to identify more easily the development of plaque after the 48-hour period of exposure to the plaque-producing organism. The staining period is followed by another 10-second rinse to remove excess dye. Any plaque formation stains a brilliant pink. […] Active compounds are tested at successively lower doses in order to determine the minimum effective concentration. On some occasions, the interference of plaque production is caused by the inhibition of growth of the organism in the culture medium because the compound has been leached from the hydroxylapatite to produce an antibacterial level in the medium. When this occurs, the compound is tested at lower concentrations until the growth of the organism in the surrounding medium is equal to that in the nonmedicated control culture. Plaque may or may not be formed at these lower concentrations.
Dental plaque-preventive effectiveness in the presence of sterile human saliva (50%) was determined for representative examples.

S. Aureus Smith = assay: In vitro antibacterial activity, MIC (modified Autotiter method); assay type: cell-based, Staphylococcus aureus; conditions: 18-20 hours at 37° C.; for MIC: Staphylococcus aureus, 20 h, read-out: MIC S. Aureus Smith
How it was run: as §1

A. niger 16404 = assay: In vitro antifungal activity, MIC (modified Autotiter method); assay type: cell-based, Aspergillus niger; conditions: 18-20 hours at 37° C.; for MIC: Aspergillus niger, 16404, 20 h, read-out: MIC A. niger 16404
How it was run: as §1

Ps. aerug. MGH-2 = assay: In vitro antibacterial activity, MIC (modified Autotiter method); assay type: cell-based, Pseudomonas aeruginosa; conditions: 18-20 hours at 37° C.; for MIC: Pseudomonas aeruginosa, 20 h, read-out: MIC Ps. aerug. MGH-2
How it was run: as §1

[4] = test system: Herpes simplex type 2 virus; assay: Virucidal activity in vitro (plaque inhibition test); assay type: cell-based; conditions: 2 mg. of test compound on growth medium
Procedure: Virucidal activity of representative examples against Herpes simplex type 2 virus was determined in vitro employing a procedure similar to the plaque inhibition test for detection of specific inhibitors of DNA-containing viruses published by E. C. Herrmann, Jr., Proc. Soc. Exp. Biol. Med. 107, 142 (1961) wherein 2 mg. of the test compound was placed on the surface of the growth medium.

[5] = 125 mg/kg oral, aqueous solution
[6] = 250 mg/kg oral, aqueous solution
[7] = 500 mg/kg oral, aqueous solution
[8] = 1000 mg/kg oral, aqueous solution
[9] = 125 mg/kg oral, suspension in 1% G.T.
[10] = 500 mg/kg oral, suspension in 1% G.T.
[11] = 1000 mg/kg oral, suspension in 1% G.T.
[12] = 1250 mg/kg (so in the source) oral, suspension in 1% G.T.
[13] = 250 mg/kg oral, suspension in 1% G.T.
[14] = suspension in 1% gum tragacanth

SMILES	MIC (E. coli AB1932-1)	MIC (E. coli 100/B22)	MIC (E. coli Vogel)	MIC (T. menta. 9129)	MIC (C. albicans 10231)	MIC (C. albicans Wisc.)	MIC (K. pneum. 39645)	MIC (P. mirab. MGH-1)	MIC (S. pyogen. C203)	MIC (S. Aureus Smith)	MIC A. niger 16404 (A. niger 16404)	MIC (Ps. aerug. MGH-2)	Mortality 7 Days [1, 9]	Mortality 24 Hrs [1, 9]	Mortality 7 Days [1, 10]	Mortality 24 Hrs [1, 10]	Mortality 7 Days [1, 11]	Mortality 24 Hrs [1, 11]	Dental Plaque Preventive Activity in 50% saliva Minimum Effective Conc. (%) [3]	Mortality 7 Days [1, 13]	also measured
CCCCCCCCNc1cc[n+](CCCCCCCCCC[n+]2ccc(NCCCCCCCC)cc2)cc1 [10A,B, 1,10-bis-[4-(octylamino)-1-pyridinium]decane dichloride]	1 µg/mL	1 µg/mL	1.95 µg/mL	1.95 µg/mL	1.95 µg/mL	1.95 µg/mL	1.95 µg/mL	3.9 µg/mL	1 µg/mL	0.5 µg/mL	7.8 µg/mL	3.9 µg/mL	–	–	–	–	–	–	–	–	Mortality 7 Days [1, 5]: 0/3; Mortality 24 Hrs [1, 5]: 0/3; Mortality 7 Days [1, 6]: 0/3; Mortality 24 Hrs [1, 6]: 0/3; Mortality 7 Days [1, 7]: 0/3; Mortality 24 Hrs [1, 7]: 0/3; Mortality 7 Days [1, 8]: 0/3; Mortality 24 Hrs [1, 8]: 0/3; LD50 at 168 h ([2]; aqueous solution): > 1000 mg/kg; Dental Plaque Preventive Activity in 50% saliva Minimum Effective Conc. (%) ([3]; listed as 10 A, B): 0.005%
CCCCCCCNc1cc[n+](CCCCCCCCCCCC[n+]2ccc(NCCCCCCC)cc2)cc1 [Example 4, 1,12-bis-[4-(heptylamino)-1-pyridinium]dodecane dichloride]	–	–	–	–	–	–	–	–	–	–	7.8 µg/mL	–	0/3	0/3	0/3	0/3	0/3	0/3	Ca. 0.005%	–	MIC E. coli AB1932-1 (E. coli AB1932-1): 1.0 µg/mL; MIC E. coli 100/B22 (E. coli 100/B22): 0.5 µg/mL; MIC E. coli Vogel (E. coli Vogel): 0.5 µg/mL; MIC T. menta. 9129 (T. menta. 9129): 0.5 µg/mL; MIC C. albicans 10231 (C. albicans 10231): 1.95 µg/mL; MIC C. albicans Wisc. (C. albicans Wisc.): 1.95 µg/mL; MIC K. pneum. 39645 (K. pneum. 39645): 1.95 µg/mL; MIC P. mirab. MGH-1 (P. mirab. MGH-1): 1.95 µg/mL; Mortality 7 Days [1, 12]: 0/3; Mortality 24 Hrs [1, 12]: 0/3; 7-Day ALD50 ([1]; oral, suspension in 1% gum tragacanth, 10080 min): > 1000 mg/kg; MIC S. pyogen. C203 (S. pyogen. C203): 1.0 µg/mL; MIC S. Aureus Smith (S. Aureus Smith): 0.25 µg/mL; MIC Ps. aerug. MGH-2 (Ps. aerug. MGH-2): 3.9 µg/mL
CCCCCCCCNc1cc[n+](CCCCCC[n+]2ccc(NCCCCCCCC)cc2)cc1 [Example 14]	–	–	–	–	–	–	–	–	–	–	15.6 µg/mL	–	0/3	0/3	0/3	0/3	1/3	0/3	0.1%	0/3	MIC E. coli AB1932-1 (E. coli AB1932-1): 0.5 µg/mL; MIC E. coli 100/B22 (E. coli 100/B22): 0.5 µg/mL; MIC E. coli Vogel (E. coli Vogel): 1.0 µg/mL; MIC T. menta. 9129 (T. menta. 9129): 1.0 µg/mL; MIC C. albicans 10231 (C. albicans 10231): 1.95 µg/mL; MIC C. albicans Wisc. (C. albicans Wisc.): 1.95 µg/mL; MIC K. pneum. 39645 (K. pneum. 39645): 1.95 µg/mL; MIC P. mirab. MGH-1 (P. mirab. MGH-1): 15.6 µg/mL; Mortality 24 Hrs [1, 13]: 0/3; LD50 at 168 h [2, 14]: > 1000 mg/kg; MIC S. pyogen. C203 (S. pyogen. C203): 0.5 µg/mL; MIC S. Aureus Smith (S. Aureus Smith): 0.25 µg/mL; MIC Ps. aerug. MGH-2 (Ps. aerug. MGH-2): 31.3 µg/mL
CCCCCCCCNc1cc[n+](CCCCCCCCC[n+]2ccc(NCCCCCCCC)cc2)cc1 [Example 44A, 1,9-bis-[4-(octylamino)-1-pyridinium]nonane dibromide]	1 µg/mL	1 µg/mL	1 µg/mL	1 µg/mL	1 µg/mL	1.95 µg/mL	1.95 µg/mL	15.6 µg/mL	0.5 µg/mL	1 µg/mL	–	3.9 µg/mL	0/3	0/3	0/3	0/3	0/3	0/3	0.005%	0/3	Mortality 24 Hrs [1, 13]: 0/3; LD50 at 168 h [2, 14]: > 1000 mg/kg; MIC (A. niger 16404): 3.9 µg/mL
CCCCC(CC)CNc1cc[n+](CCCCCCCC[n+]2ccc(NCC(CC)CCCC)cc2)cc1 (stereo not drawn) [Example 56, 1,8-bis-[4-(2-ethylhexylamino)-1-pyridinium]octane dibromide]	0.98 µg/mL	1.95 µg/mL	3.9 µg/mL	1.95 µg/mL	3.9 µg/mL	3.9 µg/mL	7.8 µg/mL	125 µg/mL	0.16 µg/mL	0.31 µg/mL	–	125 µg/mL	0/3	0/3	0/3	0/3	1/3	1/3	0.1%	0/3	Mortality 24 Hrs [1, 13]: 0/3; LD50 at 168 h [2, 14]: > 1000 mg/kg; MIC (A. niger 16404): 15.6 µg/mL; Virucidal activity against Herpes simplex type 2 virus [4]: active
